According to patent US9265253B2, “Use of macrocyclic picolinamides as fungicides” (DOW AGROSCIENCES LLC, priority 2013, dated 2016):

What follows are molecules tested on Mycosphaerella graminicola; Anamorph: Septoria tritici (assay: Leaf Blotch of Wheat (SEPTTR) disease control). Conditions: Zymoseptoria tritici, 24 h, 1 Day Protectant, rate 100 ppm; read-out: SEPTTR 1 DP disease control.
Assay type: in vivo
Experimental: (§1) Technical grades of materials were dissolved in acetone, which were then mixed with nine volumes of water containing 110 ppm Triton X-100. The fungicide solutions were applied onto wheat seedlings using an automated booth sprayer to run-off. All sprayed plants were allowed to air dry prior to further handling. All fungicides were evaluated using the aforementioned method for their activity vs. all target diseases. Wheat leaf blotch and brown rust activity were also evaluated using track spray applications, in which case the fungicides were formulated as EC formulations, containing 0.1% Trycol 5941 in the spray solutions. Wheat plants (variety Yuma) were grown from seed in a greenhouse in 50% mineral soil/50% soil-less Metro mix until the first leaf was fully emerged, with 7-10 seedlings per pot. These plants were inoculated with an aqueous spore suspension of Septoria tritici either prior to or after fungicide treatments. After inoculation the plants were kept in 100% relative humidity (one day in a dark dew chamber followed by two to three days in a lighted dew chamber at 20° C.) to permit spores to germinate and infect the leaf. The plants were then transferred to a greenhouse set at 20° C. for disease to develop. When disease symptoms were fully expressed on the 1st leaves of untreated plants, infection levels were assessed on a scale of 0 to 100 percent disease severity. Percent disease control was calculated using the ratio of disease severity on treated plants relative to untreated plants.

SMILES	pest or weed control at 100 ppm [%]
CCOCC(=O)OCOc1c(OC)ccnc1C(=O)N[C@H]1CCC[C@H](Cc2ccc(F)cc2)[C@@H](OCC(F)F)[C@H](C)OC1=O [Compound F169]	80 to 100
COc1ccnc(C(=O)N[C@H]2CCC[C@H](CCC(C)C)[C@@H](OC3CCCC3)[C@H](C)OC2=O)c1O [Compound F6]	80 to 100
COc1ccnc(C(=O)N[C@H]2CCC[C@H](Cc3ccc(F)cc3)[C@@H](OCC(F)F)[C@H](C)OC2=O)c1OCOC(C)=O [Compound F103]	80 to 100
COc1ccnc(C(=O)N[C@H]2CCC[C@H](CCC(C)C)[C@@H](OC)[C@H](C)OC2=O)c1OC(C)=O [Compound F66]	80 to 100
COc1ccnc(C(=O)N[C@H]2CCC[C@H](Cc3ccc(F)cc3F)[C@@H](OCc3ccccc3)[C@H](C)OC2=O)c1OCOC(C)=O [Compound F137]	80 to 100

Same assay, conditions: Zymoseptoria tritici, 24 h, 1 Day Protectant, rate 121.5 g/H; read-out: SEPTTR 1 DP disease control

SMILES	pest or weed control at 121.5 g/ha [%]
CCOCC(=O)OCOc1c(OC)ccnc1C(=O)N[C@H]1CCC[C@H](Cc2ccc(F)cc2)[C@@H](OCC(F)F)[C@H](C)OC1=O [Compound F169]	80 to 100
COc1ccnc(C(=O)N[C@H]2CCC[C@H](Cc3ccc(F)cc3)[C@@H](OCC(F)F)[C@H](C)OC2=O)c1OCOC(C)=O [Compound F103]	80 to 100
COc1ccnc(C(=O)N[C@H]2CCC[C@H](CCC(C)C)[C@@H](OC)[C@H](C)OC2=O)c1OC(C)=O [Compound F66]	80 to 100
COc1ccnc(C(=O)N[C@H]2CCC[C@H](Cc3ccc(F)cc3F)[C@@H](OCc3ccccc3)[C@H](C)OC2=O)c1OCOC(C)=O [Compound F137]	80 to 100

Same assay, conditions: Zymoseptoria tritici, 72 h, 3 Day Curative, rate 100 ppm; read-out: SEPTTR 3 DC disease control

SMILES	pest or weed control at 100 ppm [%]
CCOCC(=O)OCOc1c(OC)ccnc1C(=O)N[C@H]1CCC[C@H](Cc2ccc(F)cc2)[C@@H](OCC(F)F)[C@H](C)OC1=O [Compound F169]	0 to 80
COc1ccnc(C(=O)N[C@H]2CCC[C@H](CCC(C)C)[C@@H](OC3CCCC3)[C@H](C)OC2=O)c1O [Compound F6]	80 to 100
COc1ccnc(C(=O)N[C@H]2CCC[C@H](Cc3ccc(F)cc3)[C@@H](OCC(F)F)[C@H](C)OC2=O)c1OCOC(C)=O [Compound F103]	80 to 100
COc1ccnc(C(=O)N[C@H]2CCC[C@H](CCC(C)C)[C@@H](OC)[C@H](C)OC2=O)c1OC(C)=O [Compound F66]	80 to 100
COc1ccnc(C(=O)N[C@H]2CCC[C@H](Cc3ccc(F)cc3F)[C@@H](OCc3ccccc3)[C@H](C)OC2=O)c1OCOC(C)=O [Compound F137]	80 to 100

Same assay, conditions: Zymoseptoria tritici, 72 h, 3 Day Curative, rate 121.5 g/H; read-out: SEPTTR 3 DC disease control

SMILES	pest or weed control at 121.5 g/ha [%]
CCOCC(=O)OCOc1c(OC)ccnc1C(=O)N[C@H]1CCC[C@H](Cc2ccc(F)cc2)[C@@H](OCC(F)F)[C@H](C)OC1=O [Compound F169]	80 to 100
COc1ccnc(C(=O)N[C@H]2CCC[C@H](Cc3ccc(F)cc3)[C@@H](OCC(F)F)[C@H](C)OC2=O)c1OCOC(C)=O [Compound F103]	80 to 100
COc1ccnc(C(=O)N[C@H]2CCC[C@H](CCC(C)C)[C@@H](OC)[C@H](C)OC2=O)c1OC(C)=O [Compound F66]	0 to 80
COc1ccnc(C(=O)N[C@H]2CCC[C@H](Cc3ccc(F)cc3F)[C@@H](OCc3ccccc3)[C@H](C)OC2=O)c1OCOC(C)=O [Compound F137]	80 to 100

These molecules were tested on Puccinia triticina; Synonym: Puccinia recondite f. Sp. Tritici (assay: Wheat Brown Rust (PUCCRT) disease control). Conditions: Puccinia triticina, topical, 24 h, 1 Day Protectant, rate 100 ppm; read-out: PUCCRT 1 DP disease control.
Assay type: in vivo
Experimental: as §1, with “plants. Wheat plants (variety Yuma) were grown from seed in a greenhouse in 50% mineral soil/50% soil-less Metro mix until the first leaf was fully emerged, with 7-10 seedlings per pot. These plants were inoculated with an aqueous spore suspension of Puccinia triticina either prior to or after fungicide treatments. After inoculation the plants were kept in a dark dew room at 22° C. with 100% relative humidity overnight to permit spores to germinate and infect the leaf. The plants were then transferred to a greenhouse set at 24° C. for disease to develop. Fungicide formulation, application and disease assessment followed the procedures as described in the Example A.” for “plants.”

SMILES	pest or weed control at 100 ppm [%]
CCOCC(=O)OCOc1c(OC)ccnc1C(=O)N[C@H]1CCC[C@H](Cc2ccc(F)cc2)[C@@H](OCC(F)F)[C@H](C)OC1=O [Compound F169]	80 to 100
COc1ccnc(C(=O)N[C@H]2CCC[C@H](CCC(C)C)[C@@H](OC3CCCC3)[C@H](C)OC2=O)c1O [Compound F6]	80 to 100
COc1ccnc(C(=O)N[C@H]2CCC[C@H](Cc3ccc(F)cc3)[C@@H](OCC(F)F)[C@H](C)OC2=O)c1OCOC(C)=O [Compound F103]	80 to 100
COc1ccnc(C(=O)N[C@H]2CCC[C@H](CCC(C)C)[C@@H](OC)[C@H](C)OC2=O)c1OC(C)=O [Compound F66]	80 to 100
COc1ccnc(C(=O)N[C@H]2CCC[C@H](Cc3ccc(F)cc3F)[C@@H](OCc3ccccc3)[C@H](C)OC2=O)c1OCOC(C)=O [Compound F137]	80 to 100

Same assay, conditions: Puccinia triticina, topical, 24 h, 1 Day Protectant, rate 121.5 g/H; read-out: PUCCRT 1 DP disease control

SMILES	pest or weed control at 121.5 g/ha [%]
CCOCC(=O)OCOc1c(OC)ccnc1C(=O)N[C@H]1CCC[C@H](Cc2ccc(F)cc2)[C@@H](OCC(F)F)[C@H](C)OC1=O [Compound F169]	80 to 100
COc1ccnc(C(=O)N[C@H]2CCC[C@H](Cc3ccc(F)cc3)[C@@H](OCC(F)F)[C@H](C)OC2=O)c1OCOC(C)=O [Compound F103]	80 to 100
COc1ccnc(C(=O)N[C@H]2CCC[C@H](CCC(C)C)[C@@H](OC)[C@H](C)OC2=O)c1OC(C)=O [Compound F66]	0 to 80
COc1ccnc(C(=O)N[C@H]2CCC[C@H](Cc3ccc(F)cc3F)[C@@H](OCc3ccccc3)[C@H](C)OC2=O)c1OCOC(C)=O [Compound F137]	80 to 100

Same assay, conditions: Puccinia triticina, topical, 72 h, 3 Day Curative, rate 100 ppm; read-out: PUCCRT 3 DC disease control

SMILES	pest or weed control at 100 ppm [%]
CCOCC(=O)OCOc1c(OC)ccnc1C(=O)N[C@H]1CCC[C@H](Cc2ccc(F)cc2)[C@@H](OCC(F)F)[C@H](C)OC1=O [Compound F169]	80 to 100
COc1ccnc(C(=O)N[C@H]2CCC[C@H](CCC(C)C)[C@@H](OC3CCCC3)[C@H](C)OC2=O)c1O [Compound F6]	80 to 100
COc1ccnc(C(=O)N[C@H]2CCC[C@H](Cc3ccc(F)cc3)[C@@H](OCC(F)F)[C@H](C)OC2=O)c1OCOC(C)=O [Compound F103]	80 to 100
COc1ccnc(C(=O)N[C@H]2CCC[C@H](CCC(C)C)[C@@H](OC)[C@H](C)OC2=O)c1OC(C)=O [Compound F66]	80 to 100
COc1ccnc(C(=O)N[C@H]2CCC[C@H](Cc3ccc(F)cc3F)[C@@H](OCc3ccccc3)[C@H](C)OC2=O)c1OCOC(C)=O [Compound F137]	80 to 100

Same assay, conditions: Puccinia triticina, topical, 72 h, 3 Day Curative, rate 121.5 g/H; read-out: PUCCRT 3 DC disease control

SMILES	pest or weed control at 121.5 g/ha [%]
CCOCC(=O)OCOc1c(OC)ccnc1C(=O)N[C@H]1CCC[C@H](Cc2ccc(F)cc2)[C@@H](OCC(F)F)[C@H](C)OC1=O [Compound F169]	80 to 100
COc1ccnc(C(=O)N[C@H]2CCC[C@H](Cc3ccc(F)cc3)[C@@H](OCC(F)F)[C@H](C)OC2=O)c1OCOC(C)=O [Compound F103]	80 to 100
COc1ccnc(C(=O)N[C@H]2CCC[C@H](CCC(C)C)[C@@H](OC)[C@H](C)OC2=O)c1OC(C)=O [Compound F66]	0 to 80
COc1ccnc(C(=O)N[C@H]2CCC[C@H](Cc3ccc(F)cc3F)[C@@H](OCc3ccccc3)[C@H](C)OC2=O)c1OCOC(C)=O [Compound F137]	0 to 80
